Source: ChEMBL document CHEMBL1201862, “PubChem BioAssay data set” (2004)
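Results reflect a 48-hour exposure of cells in 96-well plates to compound at five concentrations. GI50 marks 50% less growth.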 Activity calls are given as the source filed them. Rule as the data show it: active = GI50 up to about 1.1 µM and inactive = higher.

Assays:
Test in all cases: NCI-60 cell line screen, 48 h
786-0 = system: 786-0
A549 = system: A549
ACHN = system: ACHN
CAKI-1 = system: CAKI-1
DU-145 = system: DU-145
EKVX = system: EKVX
HCT-116 = system: HCT-116
HCT-15 = system: HCT-15
HL-60 = system: HL-60
HOP-62 = system: HOP-62
HOP-92 = system: HOP-92
Hs-578T = system: Hs-578T
K562 = system: K562
LOX IMVI = system: LOX IMVI
M14 = system: M14
MCF7 = system: MCF7
MDA-MB-435 = system: MDA-MB-435
MDA-N = system: MDA-N
Malme-3M = system: Malme-3M
NCI-H23 = system: NCI-H23
NCI-H460 = system: NCI-H460
NCI-H522 = system: NCI-H522
OVCAR-3 = system: OVCAR-3
OVCAR-4 = system: OVCAR-4
OVCAR-5 = system: OVCAR-5
OVCAR-8 = system: OVCAR-8
PC-3 = system: PC-3
SF-268 = system: SF-268
SK-MEL-28 = system: SK-MEL-28
SK-MEL-2 = system: SK-MEL-2
SN12C = system: SN12C
SNB-19 = system: SNB-19
T47D = system: T47D
TK-10 = system: TK-10
U-251 = system: U-251
UACC-62 = system: UACC-62
CCRF-CEM = system: CCRF-CEM
COLO 205 = system: COLO 205
HT-29 = system: HT-29
KM12 = system: KM12
MOLT-4 = system: MOLT-4
NCI-H226 = system: NCI-H226
RPMI-8226 = system: RPMI-8226
RXF 393 = system: RXF 393
SF-295 = system: SF-295
SF-539 = system: SF-539
SK-MEL-5 = system: SK-MEL-5
SK-OV-3 = system: SK-OV-3
SNB-75 = system: SNB-75
SR = system: SR
SW-620 = system: SW-620
UACC-257 = system: UACC-257
UO-31 = system: UO-31

N=C(N)c1ccc(OCCCCCOc2ccc(C(=N)N)cc2)cc1
GI50 (786-0): 13.4 µM (inactive)
GI50 (A549): 6.17 µM (inactive)
GI50 (ACHN): 14.4 µM (inactive)
GI50 (CAKI-1): > 100 µM (inactive)
GI50 (DU-145): 13.6 µM (inactive)
GI50 (EKVX): 18.1 µM (inactive)
GI50 (HCT-116): 14.4 µM (inactive)
GI50 (HCT-15): 16.7 µM
GI50 (HL-60): 15.3 µM (inactive)
GI50 (HOP-62): 16.1 µM (inactive)
GI50 (HOP-92): 32.6 µM (inactive)
GI50 (Hs-578T): 11.5 µM (inactive)
GI50 (K562): 1.92 µM (inactive)
GI50 (LOX IMVI): 12.7 µM (inactive)
GI50 (M14): 15.2 µM (inactive)
GI50 (MCF7): 5.31 µM (inactive)
GI50 (MDA-MB-435): 10.4 µM (inactive)
GI50 (MDA-N): 11.2 µM (inactive)
GI50 (Malme-3M): 13.8 µM (inactive)
GI50 (NCI-H23): 6.71 µM (inactive)
GI50 (NCI-H460): 3.08 µM (inactive)
GI50 (NCI-H522): 6.44 µM (inactive)
GI50 (OVCAR-3): 15.5 µM (inactive)
GI50 (OVCAR-4): 11.2 µM (inactive)
GI50 (OVCAR-5): 22.8 µM (inactive)
GI50 (OVCAR-8): 7.85 µM (inactive)
GI50 (PC-3): 12.1 µM (inactive)
GI50 (SF-268): 12.5 µM (inactive)
GI50 (SK-MEL-28): 10.2 µM (inactive)
GI50 (SK-MEL-2): 17.3 µM (inactive)
GI50 (SN12C): 7.06 µM (inactive)
GI50 (SNB-19): 15.7 µM (inactive)
GI50 (T47D): 7.73 µM (inactive)
GI50 (TK-10): 13.6 µM (inactive)
GI50 (U-251): 9.84 µM (inactive)
GI50 (UACC-62): 11.5 µM (inactive)

CC(=O)OC1[C@H](OC(C)=O)C2=C(C)[C@@H](OC(C)=O)C[C@@]2(C(C)(C)O)[C@@H](OC(C)=O)[C@H]2[C@@]1(C)[C@@H](OC(C)=O)CC(OC(C)=O)[C@]21CO1 (some centres not stated)
GI50 (786-0): > 100 µM (inactive)
GI50 (A549): > 100 µM (inactive)
GI50 (ACHN): > 100 µM (inactive)
GI50 (CAKI-1): > 100 µM (inactive)
GI50 (CCRF-CEM): > 100 µM (inactive)
GI50 (COLO 205): > 100 µM (inactive)
GI50 (DU-145): > 100 µM (inactive)
GI50 (EKVX): > 100 µM (inactive)
GI50 (HCT-116): > 100 µM (inactive)
GI50 (HCT-15): > 100 µM
GI50 (HL-60): > 100 µM (inactive)
GI50 (HOP-62): > 100 µM (inactive)
GI50 (HT-29): > 100 µM (inactive)
GI50 (Hs-578T): > 100 µM (inactive)
GI50 (K562): > 100 µM (inactive)
GI50 (KM12): > 100 µM (inactive)
GI50 (LOX IMVI): > 100 µM (inactive)
GI50 (M14): > 100 µM (inactive)
GI50 (MCF7): > 100 µM (inactive)
GI50 (MDA-MB-435): > 100 µM (inactive)
GI50 (MDA-N): > 100 µM (inactive)
GI50 (MOLT-4): > 100 µM (inactive)
GI50 (Malme-3M): > 100 µM (inactive)
GI50 (NCI-H226): > 100 µM (inactive)
GI50 (NCI-H23): > 100 µM (inactive)
GI50 (NCI-H522): > 100 µM (inactive)
GI50 (OVCAR-3): > 100 µM (inactive)
GI50 (OVCAR-4): > 100 µM (inactive)
GI50 (OVCAR-5): > 100 µM (inactive)
GI50 (OVCAR-8): > 100 µM (inactive)
GI50 (PC-3): > 100 µM (inactive)
GI50 (RPMI-8226): > 100 µM (inactive)
GI50 (RXF 393): > 100 µM (inactive)
GI50 (SF-268): > 100 µM (inactive)
GI50 (SF-295): > 100 µM (inactive)
GI50 (SF-539): > 100 µM (inactive)
GI50 (SK-MEL-28): > 100 µM (inactive)
GI50 (SK-MEL-2): > 100 µM (inactive)
GI50 (SK-MEL-5): > 100 µM (inactive)
GI50 (SK-OV-3): > 100 µM (inactive)
GI50 (SN12C): > 100 µM (inactive)
GI50 (SNB-19): > 100 µM (inactive)
GI50 (SNB-75): > 100 µM (inactive)
GI50 (SR): > 100 µM (inactive)
GI50 (SW-620): > 100 µM (inactive)
GI50 (T47D): > 100 µM (inactive)
GI50 (TK-10): > 100 µM (inactive)
GI50 (U-251): > 100 µM (inactive)
GI50 (UACC-257): > 100 µM (inactive)
GI50 (UACC-62): > 100 µM (inactive)
GI50 (UO-31): > 100 µM (inactive)
